Measurements taken from paper PMC3904261 (British Journal of Pharmacology, 2013).
Bridge positions count the residues as written; N and C are the ends. Ends that are not written are not given here.

How the values were obtained:
[1] = molecular target: T1, AMY1(a) receptor (Homo sapiens, UniProt O60894+P30988); test: cAMP production in Cos 7 cells via the AMY1(a) receptor; assay type: cell-based; settings: AlphaScreen, means ± SEM, n = 3–6
T1 construct: HA; expressed in transfected cells; host or cells: Cos 7
T1 sequence (P30988 25-474): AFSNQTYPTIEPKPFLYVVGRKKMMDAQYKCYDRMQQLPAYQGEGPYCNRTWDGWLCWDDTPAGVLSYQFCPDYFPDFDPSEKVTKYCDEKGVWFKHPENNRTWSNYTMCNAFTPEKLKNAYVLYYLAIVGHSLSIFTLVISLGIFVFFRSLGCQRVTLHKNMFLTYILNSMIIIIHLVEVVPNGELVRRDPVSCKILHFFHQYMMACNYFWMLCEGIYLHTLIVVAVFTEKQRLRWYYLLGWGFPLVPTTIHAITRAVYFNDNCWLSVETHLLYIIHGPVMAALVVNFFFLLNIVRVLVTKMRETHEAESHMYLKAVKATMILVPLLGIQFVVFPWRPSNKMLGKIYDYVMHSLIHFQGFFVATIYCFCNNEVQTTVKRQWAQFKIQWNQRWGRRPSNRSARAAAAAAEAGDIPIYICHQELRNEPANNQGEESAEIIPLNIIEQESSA
T1 sequence (O60894 27-148): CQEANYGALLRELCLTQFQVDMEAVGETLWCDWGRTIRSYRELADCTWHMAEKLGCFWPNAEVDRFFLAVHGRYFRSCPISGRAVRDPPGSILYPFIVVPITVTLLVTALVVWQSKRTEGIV
Description: SK-N-MC cells were grown in DMEM/F12 medium supplemented with 10% fetal calf serum as described previously (Poyner et al., [1998]). […] Production of cAMP in SK-N-MC cells for all analogues except [[…]]-hαCGRP was by a radioreceptor assay, as described previously (Poyner et al., [1998]). […] For [[…]]-hαCGRP, a different clone of SK-N-MC cells was used and cAMP production was measured via AlphaScreen (Perkin Elmer, Wellesley, MA, USA), as described previously ([…] et al., [2010]). This assay was also used to investigate the action of all derivatives at the AMY1(a) receptor and other experiments using Cos 7 cells. […] GraphPad Prism 5.00 or 6.00 (GraphPad Software Inc., San Diego, CA, USA) was used for data fitting. Concentration-response curves were fitted to a sigmoidal function with Hill slope constrained to unity to obtain pEC50 and maximum responses (Emax) values. Displacement curves were analysed to obtain pIC50 values. Schild plots were fitted by linear regression to obtain slope and intercepts. pEC50 and pIC50 values were compared with that of human αCGRP using Dunnett's test with either a normal or repeated measures one-way ANOVA, as appropriate.

[2] = molecular target: T2, CGRP receptor (Homo sapiens, UniProt O60894+Q16602); test: β-arrestin 2 translocation in CHO-K1 cells (PathHunter eXpress); assay type: cell-based; set-up: host or cells: CHO-K1 (PathHunter eXpress β-arrestin kit)
T2 sequence (Q16602 23-461): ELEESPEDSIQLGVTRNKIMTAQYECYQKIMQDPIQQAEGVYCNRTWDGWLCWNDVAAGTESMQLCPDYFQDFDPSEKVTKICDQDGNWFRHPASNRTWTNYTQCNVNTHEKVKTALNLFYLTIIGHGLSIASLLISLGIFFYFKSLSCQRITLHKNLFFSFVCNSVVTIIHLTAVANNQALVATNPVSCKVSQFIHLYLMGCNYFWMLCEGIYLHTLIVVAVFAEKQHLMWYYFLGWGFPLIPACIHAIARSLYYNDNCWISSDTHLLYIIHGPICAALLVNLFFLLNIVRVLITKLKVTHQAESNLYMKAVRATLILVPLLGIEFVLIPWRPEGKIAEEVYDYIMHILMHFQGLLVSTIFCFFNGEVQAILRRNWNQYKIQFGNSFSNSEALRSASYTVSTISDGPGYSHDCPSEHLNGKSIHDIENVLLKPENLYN
T2 sequence (O60894 27-148): as the sequence (O60894 27-148) above
Description: (§1) GraphPad Prism 5.00 or 6.00 (GraphPad Software Inc., San Diego, CA, USA) was used for data fitting. Concentration–response curves were fitted to a sigmoidal function with Hill slope constrained to unity to obtain pEC50 and maximum responses (Emax) values. Displacement curves were analysed to obtain pIC50 values. Schild plots were fitted by linear regression to obtain slope and intercepts. pEC50 and pIC50 values were compared with that of human αCGRP using Dunnett's test with either a normal or repeated measures one-way ANOVA, as appropriate.

[3] = molecular target: T2, CGRP receptor; test: Displacement of 125I-CGRP binding to SK-N-MC cell membranes; set-up: relative expression levels of the receptors (endogenous vs. overexpressed); endogenous in cells; host or cells: SK-N-MC cells (ECACC clone; ATCC clone for [Cys5]-CGRP); settings: Binding (SK-N-MC) pKi CGRP analogue, 125I-CGRP displacement, SK-N-MC cell membranes; means ± SEM, n = 3–6; [Cys5] on a different batch of SK-N-MC cells
Description: as §1

[4] = molecular target: T2, CGRP receptor; test: cAMP production in SK-N-MC cells; assay type: cell-based; set-up: relative expression levels of the receptors (endogenous vs. overexpressed); endogenous in cells; host or cells: SK-N-MC cells (ECACC clone; ATCC clone for [Cys5]-CGRP); settings: radioreceptor assay, approx. 10 min, means ± SEM, n = 3–6
Description: Production of cAMP in SK-N-MC cells for all analogues except [[…]]-hαCGRP was by a radioreceptor assay, as described previously (Poyner et al., [1998]). […] For [[…]]-hαCGRP, a different clone of SK-N-MC cells was used and cAMP production was measured via AlphaScreen (Perkin Elmer, Wellesley, MA, USA), as described previously ([…] et al., [2010]). This assay was also used to investigate the action of all derivatives at the AMY1(a) receptor and other experiments using Cos 7 cells. […] GraphPad Prism 5.00 or 6.00 (GraphPad Software Inc., San Diego, CA, USA) was used for data fitting. Concentration-response curves were fitted to a sigmoidal function with Hill slope constrained to unity to obtain pEC50 and maximum responses (Emax) values. Displacement curves were analysed to obtain pIC50 values. Schild plots were fitted by linear regression to obtain slope and intercepts. pEC50 and pIC50 values were compared with that of human αCGRP using Dunnett's test with either a normal or repeated measures one-way ANOVA, as appropriate.

[5] = molecular target: AMY_(1(a)) receptor (human HA-tagged CT (a) receptor with human myc-tagged RAMP1) (human) (UniProt O60894)
Sequence of AMY_(1(a)) receptor (human HA-tagged CT (a) receptor with human myc-tagged RAMP1) (human) (O60894 whole entry, looked up): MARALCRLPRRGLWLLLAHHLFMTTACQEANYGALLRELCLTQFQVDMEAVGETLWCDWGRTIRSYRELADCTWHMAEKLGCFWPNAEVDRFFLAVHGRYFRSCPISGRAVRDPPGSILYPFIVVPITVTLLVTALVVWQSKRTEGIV

[6] = molecular target: T3, CGRP receptor (calcitonin receptor-like receptor in complex with receptor activity-modifying protein 1) (human (endogenous in SK-N-MC), UniProt Q16602 23-461; O60894 27-148); test: cell-based or functional assay
T3 sequence (Q16602 23-461, chain 1 of 2): as the sequence (Q16602 23-461) above
T3 sequence (O60894 27-148, chain 2 of 2): as the sequence (O60894 27-148) above

[7] = molecular target: T3, CGRP receptor (calcitonin receptor-like …); test: radioligand binding; displacement of ^125I-CGRP from SK-N-MC cell membranes by unlabelled peptides, microcentrifugation-based binding assay; [Cys^5]-CGRP and its control on another batch of SK-N-MC cells; settings: one partner purified
[8] = 2 h stimulation, means ± SEM, n = 3

Molecule | AMY1(a) receptor-stimulated cAMP pEC50 CGRP analogue [1] | β-Arrestin (CHO-K1) pEC50 CGRP analogue [2, 8] | Ki [3] | cAMP (SK-N-MC) pEC50 CGRP analogue [4] | Emax (% CGRP), cAMP production in Cos 7 cells with the AMY (1(a)) receptor [5] | pEC50, cAMP production in Cos 7 cells with the AMY (1(a)) receptor [5] | Emax (% CGRP), cAMP production in SK-N-MC cells [6] | Emax (% CGRP), β-arrestin 2 translocation in CHO-K1 cells expressing the human CGRP receptor [6] | pEC50, cAMP production in SK-N-MC cells [6] | pEC50, β-arrestin 2 translocation in CHO-K1 cells expressing the human CGRP receptor [6] | pKi [7] | other results
CC(C)C[C@H](NC(=O)CNC(=O)[C@H](C)NC(=O)[C@H](CC(C)C)NC(=O)[C@H](CCCNC(=N)N)NC(=O)[C@H](Cc1c[nH]cn1)NC(=O)[C@@H](NC(=O)[C@@H](NC(=O)[C@@H]1CSSC[C@H](NC(=O)[C@H](C)N)C(=O)N[C@@H](CC(=O)O)C(=O)N[C@@H]([C@@H](C)O)C(=O)N[C@@H](C)C(=O)N[C@@H](CCCCN)C(=O)N1)C(C)C)[C@@H](C)O)C(=O)N[C@@H](CC(C)C)C(=O)N[C@@H](CO)C(=O)N[C@@H](CCCNC(=N)N)C(=O)N[C@@H](CO)C(=O)NCC(=O)NCC(=O)N[C@H](C(=O)N[C@H](C(=O)N[C@@H](CCCCN)C(=O)N[C@@H](CC(N)=O)C(=O)N[C@@H](CC(N)=O)C(=O)N[C@@H](Cc1ccccc1)C(=O)N[C@H](C(=O)N1CCC[C@H]1C(=O)N[C@H](C(=O)N[C@@H](CC(N)=O)C(=O)N[C@H](C(=O)NCC(=O)N[C@@H](CO)C(=O)N[C@@H](CCCCN)C(=O)N[C@@H](C)C(=O)N[C@@H](Cc1ccccc1)C(N)=O)C(C)C)[C@@H](C)O)C(C)C)C(C)C)C(C)C [[Lys^6]] | Undetectable | Undetectable | 17.4 nM | Undetectable |  |  |  |  |  |  |  | 
CC(C)C[C@H](NC(=O)CNC(=O)[C@H](C)NC(=O)[C@H](CC(C)C)NC(=O)[C@H](CCCNC(=N)N)NC(=O)[C@H](Cc1c[nH]cn1)NC(=O)[C@@H](NC(=O)[C@@H](NC(=O)[C@@H]1CSSC[C@H](NC(=O)[C@H](C)N)C(=O)N[C@@H](CC(=O)O)C(=O)N[C@@H]([C@@H](C)O)C(=O)N[C@@H](C)C(=O)N[C@@H](CO)C(=O)N1)C(C)C)[C@@H](C)O)C(=O)N[C@@H](CC(C)C)C(=O)N[C@@H](CO)C(=O)N[C@@H](CCCNC(=N)N)C(=O)N[C@@H](CO)C(=O)NCC(=O)NCC(=O)N[C@H](C(=O)N[C@H](C(=O)N[C@@H](CCCCN)C(=O)N[C@@H](CC(N)=O)C(=O)N[C@@H](CC(N)=O)C(=O)N[C@@H](Cc1ccccc1)C(=O)N[C@H](C(=O)N1CCC[C@H]1C(=O)N[C@H](C(=O)N[C@@H](CC(N)=O)C(=O)N[C@H](C(=O)NCC(=O)N[C@@H](CO)C(=O)N[C@@H](CCCCN)C(=O)N[C@@H](C)C(=O)N[C@@H](Cc1ccccc1)C(N)=O)C(C)C)[C@@H](C)O)C(C)C)C(C)C)C(C)C [[Ser^6]] |  |  | 0.759 nM |  |  |  |  |  |  |  |  | EC50 ([1]; AMY1(a) receptor-stimulated cAMP pEC50 CGRP analogue): 0.562 nM; AMY1(a) receptor-stimulated cAMP Emax (% CGRP) CGRP analogue [1]: 76 ± 19 % CGRP; β-Arrestin (CHO-K1) Emax (% CGRP) CGRP analogue [2, 8]: 57.3 ± 4.8 % CGRP; Emax ([2]; CHO-K1, CHO-K1 cells, compared with CGRP, read-out: reduction of Emax, β-arrestin 2 translocation): 40%; EC50 ([2]; β-Arrestin (CHO-K1) pEC50 CGRP analogue, 2 h stimulation, means ± SEM, n = 3): 8.51 nM; EC50 ([4]; cAMP (SK-N-MC) pEC50 CGRP analogue): 53.7 nM; cAMP (SK-N-MC) Emax (% CGRP) CGRP analogue [4]: 100 ± 10 % CGRP
CC(C)C[C@H](NC(=O)CNC(=O)[C@H](C)NC(=O)[C@H](CC(C)C)NC(=O)[C@H](CCCNC(=N)N)NC(=O)[C@H](Cc1c[nH]cn1)NC(=O)[C@@H](NC(=O)[C@@H](NC(=O)[C@@H]1CSSC[C@H](NC(=O)[C@H](C)N)C(=O)N[C@@H](CC(=O)O)C(=O)N[C@@H]([C@@H](C)O)C(=O)N[C@@H](C)C(=O)N[C@@H](CC(=O)O)C(=O)N1)C(C)C)[C@@H](C)O)C(=O)N[C@@H](CC(C)C)C(=O)N[C@@H](CO)C(=O)N[C@@H](CCCNC(=N)N)C(=O)N[C@@H](CO)C(=O)NCC(=O)NCC(=O)N[C@H](C(=O)N[C@H](C(=O)N[C@@H](CCCCN)C(=O)N[C@@H](CC(N)=O)C(=O)N[C@@H](CC(N)=O)C(=O)N[C@@H](Cc1ccccc1)C(=O)N[C@H](C(=O)N1CCC[C@H]1C(=O)N[C@H](C(=O)N[C@@H](CC(N)=O)C(=O)N[C@H](C(=O)NCC(=O)N[C@@H](CO)C(=O)N[C@@H](CCCCN)C(=O)N[C@@H](C)C(=O)N[C@@H](Cc1ccccc1)C(N)=O)C(C)C)[C@@H](C)O)C(C)C)C(C)C)C(C)C [[Asp^6]] | Undetectable | Undetectable | 31.6 nM | Undetectable |  |  |  |  |  |  |  | 
ACCTATCVTHRLAGLLSRSGGVVKNNFVPTNVGSKAF-NH2 (disulfide 2-7; N-terminus assumed; SMILES CC(C)C[C@H](NC(=O)CNC(=O)[C@H](C)NC(=O)[C@H](CC(C)C)NC(=O)[C@H](CCCNC(=N)N)NC(=O)[C@H](Cc1c[nH]cn1)NC(=O)[C@@H](NC(=O)[C@@H](NC(=O)[C@@H]1CSSC[C@H](NC(=O)[C@H](C)N)C(=O)N[C@@H](CS)C(=O)N[C@@H]([C@@H](C)O)C(=O)N[C@@H](C)C(=O)N[C@@H]([C@@H](C)O)C(=O)N1)C(C)C)[C@@H](C)O)C(=O)N[C@@H](CC(C)C)C(=O)N[C@@H](CO)C(=O)N[C@@H](CCCNC(=N)N)C(=O)N[C@@H](CO)C(=O)NCC(=O)NCC(=O)N[C@H](C(=O)N[C@H](C(=O)N[C@@H](CCCCN)C(=O)N[C@@H](CC(N)=O)C(=O)N[C@@H](CC(N)=O)C(=O)N[C@@H](Cc1ccccc1)C(=O)N[C@H](C(=O)N1CCC[C@H]1C(=O)N[C@H](C(=O)N[C@@H](CC(N)=O)C(=O)N[C@H](C(=O)NCC(=O)N[C@@H](CO)C(=O)N[C@@H](CCCCN)C(=O)N[C@@H](C)C(=O)N[C@@H](Cc1ccccc1)C(N)=O)C(C)C)[C@@H](C)O)C(C)C)C(C)C)C(C)C) [[Cys^3]-CGRP] |  |  |  |  | 108 % CGRP | 8.9 | 116 % CGRP | 95 % CGRP | 8.27 | 8.43 | 9.54 | 
ACDTASCVTHRLAGLLSRSGGVVKNNFVPTNVGSKAF-NH2 (disulfide 2-7) [[Ser^6]-CGRP] |  |  |  |  | 76 % CGRP | 9.25 | 100 % CGRP | 57.3 % CGRP | 7.27 | 8.07 | 9.12 | 
